From US20230094922A1, “METHODS OF THERAPEUTIC PROGNOSTICATION” (GENETIKAPLUS LTD., priority 2020, published 2023)

Tested on: iPSC-derived cortical neurons
Test: Pre- and post-synaptic marker (Synapsin, PSD95) puncta and colocalization imaging analysis
Assay type: cell-based, human
Conditions: for intact synapses (colocalization of pre- and post-synaptic terminals), treated vs untreated: 7 days after treatment (Bupropion also 3 days)
Procedure: iPSC differentiation into neurons-iPSCs were seeded at a density of 3×10^6 cells/well on a hESC-qualified Matrigel pre-coated 6-well plate and incubated at 37° C., 5% CO2 overnight. Differentiation was initiated the following day (day 0) after verifying that 100% confluency was reached. Differentiation media was added daily according to the following order: […]7 (day 15 onward) similar to a previously published protocol developed by for rapid differentiation to cortical neurons. The components of the described media, Q1-7, are provided in Appendix 1. Cells were assessed for differentiation efficiency and cell death on a daily basis. On day 9, differentiated neurons were re-plated on either 96-well plates (destined for staining) or 12-well plates (destined for RNA extraction) that were coated with 15 μg/mL Poly-ornithine diluted in PBS (overnight incubation at 37° C.), followed by 1 μg/mL Laminin and 2 μg/mL Fibronectin diluted in PBS (overnight incubation at 37° C.): Neurons were first rinsed with pre-warmed PBS and 1 ml/well of Accutase was added for 35 minutes at 37° C., 5% CO2. DNAse1 (0.5 mg/mL) was then added for 10 additional minutes. 3 ml of pre-warmed Neurobasal media was added to each well and neurons were gently collected using a 5 ml […]. Wells were then verified for the presence of any remaining neurons. Neurons were spun down and resuspended in Q6 media. Neurons were seeded at a density of 150,000 cells/cm^2 placed back at 37° C. Following four hours of incubation, media was changed to Q6 media (150 μl per 96-well and 1 ml per 12-well). […] For dendritic arborization analysis, pre/post-synaptic markers and colocalization analysis; α-Syn, PSD95 and MAP2 primary antibodies were used. Following washes, fluorophore-coupled secondary antibodies were incubated in the blocking solution for 1 hour at room temperature. The cells were counter-stained with 4',6-diamidino-2-phenylindole (DAPI) for nuclei detection for 15 minutes at room temperature followed by washes with PBS. Imaging was performed using Nikon Spinning Disk Confocal microscope. For imaging of pre- and post-synaptic markers, images were acquired with a 100× objective in z-stacks. For dendritic arborization analysis, images were acquired with a 20× objective in z-stacks. For imaging of dendritic spines, during culture treatment described in materials and methods, cells were infected at Day 20 with human syn-GFP or mKate virus and stained for GFP or mKate. Cells were fixed as described at day 35 and stained with antibodies against GFP or mKate respectively. Images were acquired using the Nikon Confocal Alit with a 60× objective and a 2× digital zoom in z-stacks and using the Nikon spinning disk Microscope with a 100× objective in z-stacks. Neuronal and synaptic morphology was assessed using the Neurolucida software, pre- and post-synaptic marker analysis was performed using CellProfiler and total dendritic length was measured using Fiji software. Immunohistochemical examination was carried out on the induced neuronal cells.

CNCCC=C1c2ccccc2CCc2ccccc21 [Nortriptyline, 1-Propanamine, 3-(10,11-dihydro-5H-dibenzo[a,d]cyclohepten-5-ylidene)-N-methyl-]
density of post-synaptic terminals (PSD95 puncta), responders vs non-responders (after treatment): increase in density was also present | intact synapses, responders vs non-responders (after treatment): significantly more intact synapses | intact synapses (colocalization of pre- and post-synaptic terminals), treated vs untreated (neurons from non-responders): no change or even a slight decrease | density of post-synaptic terminals (distance between PSD95 puncta), after vs before treatment (neurons from responders, 7 days after treatment): significant increase in density | intact synapses (colocalization of pre- and post-synaptic terminals), treated vs untreated (neurons from responders): significantly upregulated
